The target in one test is insulin/DQ8 (Homo sapiens, UniProt P01909+P01920). The test is described as follows: Inhibition of DQ8 antigen presentation to insulin-responsive CD4 TCR transductant (Clone 5), secreted IL-2 by ELISA. To be noted: for Clone 5 IC50 (insulin/DQ8) / IC50: Clone 5 TCR transductant, HLA-DQ8 antigen presenting cells with insulin peptide, secreted IL-2; for inhibition of an insulin-responsive CD4 T cell receptor (TCR) transductant: FIG. 3A / FIG. 4A, secreted IL-2 by ELISA, result in words. The class given is cell-based. As for the experimental part:
(§1) Inhibition of DQ8 antigen presentation by compounds of this disclosure was tested and compared in vitro. HLA-DQ8 antigen presenting cells were cultured with a fixed concentration of peptide and a concentration of one of the tested compounds for 4 hours. TCR transductants were then added to each culture condition and cultured overnight. Secreted IL-2 from the TCR transductant was measured by ELISA for each condition.
(§2) In these figures, 0 represents the TCR transductant response to peptide without the addition of the test compound.

A further test addresses α-gliadin/DQ8 (Homo sapiens, UniProt P01909+P01920). The test is described as follows: Inhibition of DQ8 antigen presentation to gliadin-responsive CD4 TCR transductant (489), secreted IL-2 by ELISA. The class given is cell-based. Particulars: for 489 IC50 (α-gliadin/DQ8) / IC50: 489 TCR transductant, HLA-DQ8 antigen presenting cells with α-gliadin peptide, secreted IL-2; for inhibition of gliadin-responsive CD4 TCR: FIG. 3B / FIG. 4B, secreted IL-2 by ELISA, result in words. As to the method:
as §1, §2
(In general: ELISA stands for enzyme-linked immunosorbent assay.)

The structures appear in SMILES notation.

Broadly, the IC50 is the point on the concentration scale where inhibition reaches its midpoint.

Sequence of α-gliadin/DQ8 (P01920 33-261 limits assumed, other chains not shown): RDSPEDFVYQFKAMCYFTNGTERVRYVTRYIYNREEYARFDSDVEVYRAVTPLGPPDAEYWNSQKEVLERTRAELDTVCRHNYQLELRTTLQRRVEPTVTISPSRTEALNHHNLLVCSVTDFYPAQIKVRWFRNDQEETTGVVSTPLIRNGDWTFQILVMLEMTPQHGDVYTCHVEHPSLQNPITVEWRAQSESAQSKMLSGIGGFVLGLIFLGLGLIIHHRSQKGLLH
Sequence of insulin/DQ8 (P01920 33-261 limits assumed, other chains not shown): as above

Consider `CC(N)(Cc1ccccc1)C(=O)O` (stereo not drawn) [α-methylphenylalanine, 2-amino-2-methyl-3-phenylpropanoic acid], for which the “Clone 5 IC50 (insulin/DQ8)” value on insulin/DQ8 was “No inhibition”. In addition, the “489 IC50 (α-gliadin/DQ8)” value on α-gliadin/DQ8 was “No inhibition”.

As to `CC(C)(C)C(N)(Cc1ccc(O)c(O)c1)C(=O)O.Cl` (centres unmarked) [Compound F994-0666], the “inhibition of an insulin-responsive CD4 T cell receptor (TCR) transductant” value on insulin/DQ8 is on record as “concentration-dependent inhibition”. For the same compound, at α-gliadin/DQ8, the “inhibition of gliadin-responsive CD4 TCR” value is recorded as “concentration-dependent inhibition”.

Turning to `C[C@@](N)(Cc1ccc(O)c(O)c1)C(=O)O` (stereo in doubt) [α-methyldopa, 2-amino-3-(3,4-dihydroxyphenyl)-2-methylpropanoic acid], on insulin/DQ8, the IC50 came out at 3.4 µM and the “inhibition of an insulin-responsive CD4 T cell receptor (TCR) transductant” value is recorded as “concentration-dependent inhibition”. For the same compound, on α-gliadin/DQ8, the IC50 turned out to be 17.7 µM and the “inhibition of gliadin-responsive CD4 TCR” value is reported as “concentration-dependent inhibition”.

For the compound `CC(N)[C@H](O)c1ccc(O)c(O)c1` (stereo in doubt) [α-methylnorepinephrine, 4-(2-amino-1-hydroxypropyl)benzene-1,2-diol], the “Clone 5 IC50 (insulin/DQ8)” value at insulin/DQ8 is on record as “No inhibition”. For the same compound, at α-gliadin/DQ8, the “489 IC50 (α-gliadin/DQ8)” value is given as “No inhibition”.

Take `CC(N)(Cc1ccc(O)cc1)C(=O)O` (stereo not drawn) [α-methyltyrosine, 2-amino-3-(4-hydroxyphenyl)-2-methylpropanoic acid]: the “Clone 5 IC50 (insulin/DQ8)” value at insulin/DQ8 is given as “No inhibition”. Besides, the “489 IC50 (α-gliadin/DQ8)” value on α-gliadin/DQ8 is listed as “No inhibition”.

On to `CCOC(=O)C(C)(N)Cc1ccc(O)c(O)c1` (stereo not drawn) [α-methyldopa ethyl ester, Ethyl-2-amino-3-(3,4 dihydroxyphenyl)-2-methylpropanoate], for which the IC50 on insulin/DQ8 turned out to be 5.8 µM; on α-gliadin/DQ8, 7.8 µM.

The record behind these values is US11052060B2, “Compounds and methods for treating autoimmunity” (ImmunoMolecular Therapeutics, INC., priority 2018, dated 2021).
